The structures appear in SMILES notation. Some results are limits rather than exact numbers.

This assay concerns the target T1, D2 receptors (Chlorocebus aethiops, UniProt P52702).
T1 construct: expressed in transfected cells; host or cells: COS cells
The assay is described as follows: Assay for D2 receptor binding activity (3H-YM 09151-2 displacement, COS cell pellets). Set-up: species or system African Green monkey. Particulars: recombinant receptor in COS cells; 0.5 nM 3H-YM 09151-2. The method, then: Pellets of COS cells containing recombinantly produced D2 or D4 receptors from African Green monkey are used for the assays. The sample is homogenized in 100 volumes (w/vol) of 0.05 M Tris HCl buffer at 4° C and pH 7.4. The sample is then centrifuged at 30,000 x g and resuspended and rehomogenized. The sample is again centrifuged as described above and the final tissue sample is frozen until use. The tissue is resuspended 1:20 (wt/vol) in 0.05 M Tris HCl buffer containing 100 mM NaCl.
Incubations are carried out at […] and contain 0.4 ml of tissue sample, 0.5 nM ^3H-YM 09151-2 (Nemonapride, cis-5-Chloro-2-methoxy-4-(methylamino)-N-(2-methyl-2-(phenylmethyl)-3-pyrrolidinyl)benzamide)and the compound of interest in a total incubation of 1.0 ml. Nonspecific binding is defined as that binding found in the presence of […] spiperone; without further additions, nonspecific binding is less than 20% of total binding. Binding characteristics for examples of compounds encompassed within Formulae II, III and V for the D2 and D4 receptor subtypes are shown in Table 2 for […].

T1 sequence (P52702 whole entry): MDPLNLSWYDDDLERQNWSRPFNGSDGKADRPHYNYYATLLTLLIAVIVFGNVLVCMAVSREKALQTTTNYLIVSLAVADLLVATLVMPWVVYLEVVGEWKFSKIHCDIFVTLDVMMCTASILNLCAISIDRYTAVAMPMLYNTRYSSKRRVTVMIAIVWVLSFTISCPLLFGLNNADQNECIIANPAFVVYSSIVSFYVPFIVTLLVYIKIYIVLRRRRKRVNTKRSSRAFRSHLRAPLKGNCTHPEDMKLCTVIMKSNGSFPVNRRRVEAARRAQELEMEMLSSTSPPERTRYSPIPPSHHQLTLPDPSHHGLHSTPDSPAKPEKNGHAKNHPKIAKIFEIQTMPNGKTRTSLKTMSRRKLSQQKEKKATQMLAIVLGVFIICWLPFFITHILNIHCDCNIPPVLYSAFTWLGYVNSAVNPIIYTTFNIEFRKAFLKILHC

The term Ki denotes the equilibrium dissociation constant of an inhibitor or competing ligand from its target. As to `Cc1ccc(CN2CCN(c3ccc4ccccc4n3)CC2)cc1` [Compound 2], the Ki was over 4 µM.

`Clc1ccc(CN2CCN(c3cnc4ccccc4n3)CC2)cc1` [Compound 3]: the Ki was over 4 µM.

As for `Clc1ccc(CN2CCN(c3ccc4ccccc4c3)CC2)cc1` [Compound 6], the Ki was over 4 µM.

The values above are taken from EP1025097B1, “1-(2-NAPHTHYL) AND 1-(2-AZANAPHTHYL)-4-(1-PHENYLMETHYL)PIPERAZINES BEING DOPAMINE D 4? RECEPTOR SUBTYPE LIGANDS” (NEUROGEN CORPORATION, priority 1997, dated 1999).
